Results reported in patent publication US20060079463A1 (priority 2003, published 2006).

How the values were obtained:
Mouse Hepatoma H22 = assay: Kunming mouse Hepatoma H22 model, in vivo tumor growth; conditions: for Compared to Glucose group Inhibition (%) / Compared to Saline group Inhibition (%) / Tumor size Mean ± SD: Table 6.2; for Compared to Glucose group Inhibition (%) / Compared to Saline group Inhibition (%) / Tumor size Mean ± SD / Tumor Size (Mean ± SD, g) / Tumor Inhibition (%): 10 days; for Tumor Size (Mean ± SD, g) / Tumor Inhibition (%): Table 2.2; for Tumor Inhibition (%): vs saline
Protocol: (§1) (2) Kunming mouse Hepatoma H22 model: Mouse Hepatoma H22 ascites tumor cells, 1×10E6 cells in 0.2 ml saline per mouse, were injected subcutaneously to the right axillary space of 5- to 6-week old Kunming mice.
(§2) C. […] The amount of either tested drug for one kg mouse was prepared as 10 ml solution, and 10 micro-liters per gram of mouse were injected intraperitoneally, once or twice daily, for 10 consecutive days for the Kunming mice with Sarcoma S-180 and Hepatoma H22, and for 15 consecutive days for C57BL/6 mice with melanoma B16. 50% glucose, 30 ml/kg, was given by gavage to selected groups of mice receiving the tested drug 60 to 90 minutes before each injection. One group of mice received saline only while another group of mice received the glucose treatment without the tested drug; these groups served as the saline-only control and the glucose-only control, respectively. A third group of mice received intraperitoneal injection of cyclophosphamide (CTX), or 5-Fluorouracil (5FU), 25 to 50 mg/kg body weight, was included in some experiments as positive control. At the end of the experiment, mouse body weight was taken, and the Sarcoma S-180, or Hepatoma H22 tumors were dissected and weighted, while the tumor size of melanoma B16 was measured using a caliper. Melanoma B16 tumor volume was calculated using the following equation: Tumor volume=S*S*L*0.5, where S is the short diameter, and L stands for long diameter of the tumor according to Beck M T et al. (Cancer Research 63:3598, 2003).

Mouse melanoma B16 = assay: C57BL/6 mouse melanoma B16 model, tumor growth; type: in vivo; conditions: for Tumor Size (Mean ± SD, mm3) / Tumor Inhibition (%): Table 4.2, 1 dose/day, 15 days; for Tumor Inhibition (%): vs saline
Protocol: (§3) (3) C57BL/6 mouse melanoma B16 model: Mouse melanoma B16 cells, 1×10E7 cells in 0.2 ml of saline per mouse, were injected subcutaneously into right axillary space of 6 to 8 week old C57BL/6 mice. The mice were randomly divided into groups after tumor cell inoculation.
as §2

[1] = Body weight of mice with B16 melanoma; conditions: Table 4.1; CTX 50 mg/kg i.p., 1 dose/day, 15 days
Protocol: as §3
as §2, with “A third group of mice received intraperitoneal injection of cyclophosphamide (CTX), or 5-Fluorouracil (5FU), 25 to 50 mg/kg body weight, was included in some experiments as positive control.” left out

[2] = Body weight of mice bearing Sarcoma S-180; conditions: CTX 30 mg/kg i.p., 1 dose/day, 10 days
Protocol: (§4) (1) Kunming mouse Sarcoma S-180 model: Mouse Sarcoma S-180 ascites tumor cells, 1×10E6 cells resuspended in 0.2 ml saline per mouse, were injected subcutaneously to the right axillary space of 5- to 6-week old Kunming mice.
as §2

Mouse Sarcoma S-180 = assay: Kunming mouse Sarcoma S-180 model, in vivo tumor growth; conditions: for Tumor Size (Mean ± SD, g) / Tumor Inhibition (%) / Tumor Weight (Mean ± SD, g) / Tumor Inhibition Rate (%): 10 days; for Tumor Weight (Mean ± SD, g) / Tumor Inhibition Rate (%): Table 3.2
Protocol: as §4, §2

[3] = Body weight of mice bearing Hepatoma H22; conditions: Table 2.1; CTX 25 mg/kg i.p., 1 dose/day, 10 days
Protocol: as §1
as §2, with “A third group of mice received intraperitoneal injection of cyclophosphamide (CTX), or 5-Fluorouracil (5FU), 25 to 50 mg/kg body weight, was included in some experiments as positive control.” left out

[4] = human, in vivo; cited from earlier work
[5] = test system: human melanoma xenographts; conditions: a dose of MIBG under hyperglycemic conditions, SCID mice; cited from earlier work
[6] = cited from earlier work
[7] = Toxicity observation during URIN and MAIN administration in tumor-bearing mice; type: in vivo; conditions: i.p., up to 4480 mg/kg once or twice daily
Protocol: as §2

[8] = MAIN H 3750 mg/kg i.p., 2 doses/day, glucose pre-treatment
[9] = MAIN L 1500 mg/kg i.p., 2 doses/day, glucose pre-treatment
[10] = MAIN M 2500 mg/kg i.p., 2 doses/day, glucose pre-treatment
[11] = URIN H 4480 mg/kg i.p., glucose pre-treatment
[12] = URIN L 1680 mg/kg i.p., glucose pre-treatment
[13] = URIN 4480 mg/kg i.p., 2 doses/day, no glucose

O=c1[nH]cc(F)c(=O)[nH]1 [5FU, 5-Fluorouracil]
Compared to Glucose group Inhibition (%) (Mouse Hepatoma H22; 5FU 25 mg/kg i.p., 1 dose/day): 71.4% | Compared to Saline group Inhibition (%) (Mouse Hepatoma H22; 5FU 25 mg/kg i.p., 1 dose/day): 77.4% | Tumor size Mean ± SD (Mouse Hepatoma H22; 5FU 25 mg/kg i.p., 1 dose/day): 0.48 ± 0.25 g

O=P1(N(CCCl)CCCl)NCCCO1 (stereo not shown) [CTX, cyclophosphamide]
Tumor Size (Mean ± SD, mm3) (Mouse melanoma B16; CTX 50 mg/kg i.p.): 118 ± 100 mm3 | Tumor Inhibition (%) (Mouse melanoma B16; CTX 50 mg/kg i.p.): 97% | Body weight (Mean ± SD, g) End [1]: 18.6 ± 1.6 g | Body weight (Mean ± SD, g) Start [1]: 20.3 ± 1.5 g | Body weight (Mean ± SD, g) End ([2]; Table 1.1): 23.5 ± 1.7 g | Body weight (Mean ± SD, g) Start ([2]; Table 1.1): 21.9 ± 1.1 g | Body weight (Mean ± SD, g) End ([2]; Table 3.1): 23.0 ± 2.9 g | Body weight (Mean ± SD, g) Start ([2]; Table 3.1): 21.4 ± 1.0 g | Tumor Size (Mean ± SD, g) (Mouse Sarcoma S-180; Table 1.2, CTX 30 mg/kg i.p., 1 dose/day): 0.53 ± 0.14 g | Tumor Inhibition (%) (Mouse Sarcoma S-180; Table 1.2, CTX 30 mg/kg i.p., 1 dose/day, vs saline): 61.3% | Tumor Weight (Mean ± SD, g) (Mouse Sarcoma S-180; CTX 30 mg/kg i.p., 1 dose/day): 0.53 ± 0.22 g | Tumor Inhibition Rate (%) (Mouse Sarcoma S-180; CTX 30 mg/kg i.p., 1 dose/day, vs saline): 73.0% | Tumor Size (Mean ± SD, g) (Mouse Hepatoma H22; CTX 25 mg/kg i.p., 1 dose/day): 1.21 ± 0.37 g | Tumor Inhibition (%) (Mouse Hepatoma H22; CTX 25 mg/kg i.p., 1 dose/day): 48.1% | Body weight (Mean ± SD, g) End [3]: 32.6 ± 2.5 g | Body weight (Mean ± SD, g) Start [3]: 24.6 ± 1.0 g

C1N2CN3CN1CN(C2)C3.O=C(O)C(O)c1ccccc1 (stereo not shown) [MAIN, methenamine mandelate]
Side effects resulting from long term use [4]: negligible | Tumor Size (Mean ± SD, g) (Mouse Sarcoma S-180; Table 5.2, MAIN H 3714 mg/kg i.p., 2 doses/day, glucose pre-treatment): 1.25 ± 0.41 g | Tumor Inhibition (%) (Mouse Sarcoma S-180; Table 5.2, MAIN H 3714 mg/kg i.p., 2 doses/day, glucose pre-treatment, vs glucose group): 45.9% | Tumor Size (Mean ± SD, g) (Mouse Sarcoma S-180; Table 5.2, MAIN L 1485 mg/kg i.p., 2 doses/day, glucose pre-treatment): 2.14 ± 0.60 g | Tumor Inhibition (%) (Mouse Sarcoma S-180; Table 5.2, MAIN L 1485 mg/kg i.p., 2 doses/day, glucose pre-treatment, vs glucose group): 7.4% | Tumor Size (Mean ± SD, g) (Mouse Sarcoma S-180; Table 5.2, MAIN M 2320 mg/kg i.p., 2 doses/day, glucose pre-treatment): 1.85 ± 0.62 g | Tumor Inhibition (%) (Mouse Sarcoma S-180; Table 5.2, MAIN M 2320 mg/kg i.p., 2 doses/day, glucose pre-treatment, vs glucose group): 19.9% | Compared to Glucose group Inhibition (%) (Mouse Hepatoma H22; [8]): 38.7% | Compared to Saline group Inhibition (%) (Mouse Hepatoma H22; [8]): 51.4% | Tumor size Mean ± SD (Mouse Hepatoma H22; [8]): 1.03 ± 0.66 g | Compared to Glucose group Inhibition (%) (Mouse Hepatoma H22; [9]): 6.0% | Compared to Saline group Inhibition (%) (Mouse Hepatoma H22; [9]): 25.5% | Tumor size Mean ± SD (Mouse Hepatoma H22; [9]): 1.58 ± 0.42 g | Compared to Glucose group Inhibition (%) (Mouse Hepatoma H22; [10]): 6.5% | Compared to Saline group Inhibition (%) (Mouse Hepatoma H22; [10]): 25.5% | Tumor size Mean ± SD (Mouse Hepatoma H22; [10]): 1.57 ± 0.74 g

N=C(N)NCc1cccc(I)c1 [MIBG, m-Iodpbenzylguanidine]
Reduction of extracellular pH of tumor [5]: up to 0.59 units

C1N2CN3CN1CN(C2)C3 [URIN, Methenamine]
Tumor Size (Mean ± SD, mm3) (Mouse melanoma B16; [11]): 2755 ± 1098 mm3 | Tumor Inhibition (%) (Mouse melanoma B16; [11]): 32.1% | Tumor Size (Mean ± SD, mm3) (Mouse melanoma B16; [12]): 3376 ± 1419 mm3 | Tumor Inhibition (%) (Mouse melanoma B16; [12]): 16.7% | Tumor Size (Mean ± SD, mm3) (Mouse melanoma B16; URIN M 2800 mg/kg i.p., glucose pre-treatment): 4241 ± 1834 mm3 | Tumor Inhibition (%) (Mouse melanoma B16; URIN M 2800 mg/kg i.p., glucose pre-treatment, value in bracket = increased rate): (−14.6%) | In vivo growth of mouse tumor B16 Melanoma (conclusion) (Mouse melanoma B16; administration of URIN): significantly inhibited | Stability in a pH-neutral medium ([6]; pH-neutral medium): very stable | Liberation of formaldehyde in serum and normal tissue ([6]; serum and normal tissue): does not liberate formaldehyde | Tumor Size (Mean ± SD, g) (Mouse Sarcoma S-180; Table 1.2, URIN 4480 mg/kg i.p., 2 doses/day, no glucose): 1.07 ± 0.31 g | Tumor Inhibition (%) (Mouse Sarcoma S-180; Table 1.2, URIN 4480 mg/kg i.p., 2 doses/day, no glucose, vs saline): 21.9% | Tumor Weight (Mean ± SD, g) (Mouse Sarcoma S-180; URIN H 4480 mg/kg i.p., 2 doses/day, glucose pre-treatment): 1.25 ± 0.41 g | Tumor Inhibition Rate (%) (Mouse Sarcoma S-180; URIN H 4480 mg/kg i.p., 2 doses/day, glucose pre-treatment, vs saline): 36.2% | Tumor Weight (Mean ± SD, g) (Mouse Sarcoma S-180; URIN L 1680 mg/kg i.p., 2 doses/day, glucose pre-treatment): 1.54 ± 0.56 g | Tumor Inhibition Rate (%) (Mouse Sarcoma S-180; URIN L 1680 mg/kg i.p., 2 doses/day, glucose pre-treatment, vs saline): 21.4% | Tumor Weight (Mean ± SD, g) (Mouse Sarcoma S-180; URIN M 2800 mg/kg i.p., 2 doses/day, glucose pre-treatment): 1.57 ± 0.50 g | Tumor Inhibition Rate (%) (Mouse Sarcoma S-180; URIN M 2800 mg/kg i.p., 2 doses/day, glucose pre-treatment, vs saline): 19.9% | In vivo growth of mouse tumor Sarcoma S-180 (conclusion) (Mouse Sarcoma S-180; administration of URIN): significantly inhibited | Death from drug toxicity [7]: No mouse died of URIN toxicity | Tumor Size (Mean ± SD, g) (Mouse Hepatoma H22; [13]): 1.37 ± 0.39 g | Tumor Inhibition (%) (Mouse Hepatoma H22; [13]): 41.2% | In vivo growth of mouse tumor Hepatoma H22 (conclusion) (Mouse Hepatoma H22; administration of URIN): significantly inhibited
